According to publication PMC12648285 (JACS Au, 2025):
Each block holds one compound with its values, some of them ahead of it.

Experiments:
GAC (73-598) = assay: Intact protein mass spectrometry, covalent modification of GAC; assay type: binding
A549 cells [1] = assay: Anti-proliferative assay, A549 cells; assay type: cell-based; conditions: 72 h
A549 cells [2] = assay: Determination of reactive oxygen species; assay type: cell-based; conditions: 16 h, flow cytometry
A549 cells [3] = assay: Determination of intracellular glutamate and glutamine levels; assay type: cell-based; conditions: 16 h treatment
GAC^WT and GAC^K320A = assay: Western blot of acetylation of GAC WT and GAC K320A; assay type: biochemical; conditions: 45 min
GAC = biological target: T1, GAC (Macaca mulatta, UniProt F7AIH5); assay: Recombinant GAC enzymatic assay; assay type: biochemical
T1 sequence (F7AIH5 73-598): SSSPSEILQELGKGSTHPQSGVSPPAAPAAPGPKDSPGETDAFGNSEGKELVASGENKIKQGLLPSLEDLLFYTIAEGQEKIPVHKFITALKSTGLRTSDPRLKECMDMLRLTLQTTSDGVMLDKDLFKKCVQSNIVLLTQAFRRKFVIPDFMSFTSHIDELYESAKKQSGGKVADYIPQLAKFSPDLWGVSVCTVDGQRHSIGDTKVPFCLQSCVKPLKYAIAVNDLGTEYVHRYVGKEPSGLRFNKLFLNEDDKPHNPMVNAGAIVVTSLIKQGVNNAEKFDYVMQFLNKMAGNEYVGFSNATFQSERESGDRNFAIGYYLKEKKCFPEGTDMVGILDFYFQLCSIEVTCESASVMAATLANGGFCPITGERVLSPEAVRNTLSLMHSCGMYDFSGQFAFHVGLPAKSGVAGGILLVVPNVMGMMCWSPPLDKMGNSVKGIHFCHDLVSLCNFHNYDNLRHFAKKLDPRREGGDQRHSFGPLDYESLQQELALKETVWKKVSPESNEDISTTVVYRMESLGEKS

[4] = biological target: TRKA kinase domain (440-796) (Homo sapiens, UniProt P04629); assay: Intact protein mass spectrometry, covalent labelling of TRKA; assay type: binding; conditions: intact protein MS, 2 h incubation, 25 °C, compound/protein 10:1
TRKA kinase domain (440-796), sequence (P04629 440-796): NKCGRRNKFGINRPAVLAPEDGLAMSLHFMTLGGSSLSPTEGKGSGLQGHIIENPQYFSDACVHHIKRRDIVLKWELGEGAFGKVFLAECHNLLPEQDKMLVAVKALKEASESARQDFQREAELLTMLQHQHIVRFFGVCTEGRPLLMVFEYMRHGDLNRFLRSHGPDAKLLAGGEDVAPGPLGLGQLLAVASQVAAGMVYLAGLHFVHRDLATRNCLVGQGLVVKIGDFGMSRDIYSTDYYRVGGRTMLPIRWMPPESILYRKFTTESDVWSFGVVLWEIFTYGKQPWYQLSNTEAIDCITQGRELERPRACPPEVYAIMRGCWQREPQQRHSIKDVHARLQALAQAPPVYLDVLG

TRKC = TRKC (Homo sapiens, UniProt Q16288); assay: TRKC kinase biochemical assay
TRKC, sequence (Q16288 32-839): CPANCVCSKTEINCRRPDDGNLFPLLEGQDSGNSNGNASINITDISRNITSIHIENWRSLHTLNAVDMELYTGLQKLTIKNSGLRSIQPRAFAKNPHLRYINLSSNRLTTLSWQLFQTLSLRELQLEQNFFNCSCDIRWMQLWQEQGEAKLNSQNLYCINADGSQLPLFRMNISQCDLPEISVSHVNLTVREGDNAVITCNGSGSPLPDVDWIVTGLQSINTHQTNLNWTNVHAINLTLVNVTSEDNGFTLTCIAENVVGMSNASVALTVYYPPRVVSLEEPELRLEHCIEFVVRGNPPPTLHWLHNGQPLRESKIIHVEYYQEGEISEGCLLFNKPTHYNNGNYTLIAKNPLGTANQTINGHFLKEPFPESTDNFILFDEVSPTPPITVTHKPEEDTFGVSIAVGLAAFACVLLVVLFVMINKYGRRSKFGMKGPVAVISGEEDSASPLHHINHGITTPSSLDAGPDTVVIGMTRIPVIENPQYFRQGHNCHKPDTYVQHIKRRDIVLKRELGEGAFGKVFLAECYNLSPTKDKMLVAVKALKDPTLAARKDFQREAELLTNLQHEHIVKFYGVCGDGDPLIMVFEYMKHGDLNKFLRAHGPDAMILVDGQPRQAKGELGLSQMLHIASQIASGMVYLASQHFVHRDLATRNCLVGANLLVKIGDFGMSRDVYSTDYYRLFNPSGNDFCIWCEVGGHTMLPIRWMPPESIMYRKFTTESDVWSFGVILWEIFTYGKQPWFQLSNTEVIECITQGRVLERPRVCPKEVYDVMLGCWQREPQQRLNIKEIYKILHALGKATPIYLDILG

TRKA (440-796) [5] = biological target: T2, TRKA (440-796) (Homo sapiens, UniProt P04629); assay: Site mapping using LC-MS/MS, TRKA+7; assay type: binding
T2 sequence (P04629 440-796): as the sequence (P04629 440-796) above

[6] = tested on: p-TRKA and p-AKT in KM12-Luc cells; assay: Western blot of TRKA activation and downstream signalling in KM12-Luc cells; assay type: cell-based; conditions: 6 h
TRKA (440-796) [7] = biological target: T2, TRKA (440-796); assay: Time-dependent intact protein mass; assay type: binding
TRKA = TRKA (Homo sapiens, UniProt P04629); assay: TRKA kinase biochemical assay
TRKA, sequence (P04629 33-796): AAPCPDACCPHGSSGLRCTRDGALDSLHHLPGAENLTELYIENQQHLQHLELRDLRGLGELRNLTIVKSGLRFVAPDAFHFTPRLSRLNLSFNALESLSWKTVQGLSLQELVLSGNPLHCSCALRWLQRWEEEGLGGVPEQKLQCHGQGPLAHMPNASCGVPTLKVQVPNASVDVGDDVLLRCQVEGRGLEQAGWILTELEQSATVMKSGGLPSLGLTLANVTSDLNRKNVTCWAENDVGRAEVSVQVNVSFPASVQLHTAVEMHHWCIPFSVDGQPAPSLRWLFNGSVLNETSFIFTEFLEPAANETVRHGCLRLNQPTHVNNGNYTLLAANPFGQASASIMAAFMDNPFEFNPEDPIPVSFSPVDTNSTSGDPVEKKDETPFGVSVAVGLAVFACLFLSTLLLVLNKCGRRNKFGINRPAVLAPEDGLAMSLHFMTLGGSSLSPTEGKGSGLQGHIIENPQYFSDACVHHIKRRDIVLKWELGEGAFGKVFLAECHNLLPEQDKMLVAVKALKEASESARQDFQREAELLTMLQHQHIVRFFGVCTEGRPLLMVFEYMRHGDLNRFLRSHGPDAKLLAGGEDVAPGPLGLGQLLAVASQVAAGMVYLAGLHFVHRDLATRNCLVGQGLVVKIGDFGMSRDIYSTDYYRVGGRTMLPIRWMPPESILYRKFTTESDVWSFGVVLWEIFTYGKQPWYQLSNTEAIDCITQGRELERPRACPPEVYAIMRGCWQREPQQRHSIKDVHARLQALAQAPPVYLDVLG

TRKB = TRKB (Homo sapiens, UniProt Q16620); assay: TRKB kinase biochemical assay
TRKB, sequence (Q16620 32-822): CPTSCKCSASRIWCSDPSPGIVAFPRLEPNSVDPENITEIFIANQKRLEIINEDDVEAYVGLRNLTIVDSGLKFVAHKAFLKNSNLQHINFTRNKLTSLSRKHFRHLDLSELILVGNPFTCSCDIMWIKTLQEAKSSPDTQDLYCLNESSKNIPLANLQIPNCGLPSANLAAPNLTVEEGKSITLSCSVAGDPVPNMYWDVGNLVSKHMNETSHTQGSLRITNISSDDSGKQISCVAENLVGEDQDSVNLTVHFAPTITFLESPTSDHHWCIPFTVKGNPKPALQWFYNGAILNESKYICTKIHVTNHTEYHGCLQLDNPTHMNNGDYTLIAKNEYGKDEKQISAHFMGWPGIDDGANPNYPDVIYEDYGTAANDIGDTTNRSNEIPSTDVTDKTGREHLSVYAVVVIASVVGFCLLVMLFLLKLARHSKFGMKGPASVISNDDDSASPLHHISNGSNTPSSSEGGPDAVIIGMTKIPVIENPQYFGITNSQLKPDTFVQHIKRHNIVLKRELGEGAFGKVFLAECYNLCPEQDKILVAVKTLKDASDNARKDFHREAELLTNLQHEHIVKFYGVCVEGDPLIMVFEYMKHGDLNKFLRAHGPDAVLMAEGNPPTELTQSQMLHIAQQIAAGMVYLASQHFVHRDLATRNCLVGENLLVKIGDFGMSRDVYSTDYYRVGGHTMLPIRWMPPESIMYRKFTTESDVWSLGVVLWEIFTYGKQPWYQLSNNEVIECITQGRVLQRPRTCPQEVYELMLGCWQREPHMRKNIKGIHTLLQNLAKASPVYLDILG

[8] = time-dependent intact protein MS, TRKA

SMILES: C#Cc1c(C=O)cccc1CC(=O)Nc1nnc(N[C@@H]2CCN(c3cccnn3)C2)s1 [Compound 14]
Covalent modification of GAC by intact protein MS (GAC (73-598); 8 h, 25 °C): confirmed covalent modification of GAC
Labeling efficiency of GAC (GAC (73-598); intact protein MS, 8 h, 25 °C, theoretical maximum 50%): ~45%
Cellular activity (A549 antiproliferative) (A549 cells [1]): limited efficacy

SMILES: CC(=O)Oc1ccc(CC(=O)Nc2nnc(N[C@@H]3CCN(c4cccnn4)C3)s2)cc1C#N [Compound 16]
Intracellular reactive oxygen species (ROS) level (A549 cells [2]): significantly increased
Total protein products displaying acetylation (GAC (73-598); MS of GAC-16 after 8 h incubation at 25 °C): 71.05%
Glutamine-to-glutamate conversion (intracellular GLU/GLN ratio) (A549 cells [3]): marked reduction
Acetylation of wild-type vs Lys320 mutant GAC at low concentrations (GAC^WT and GAC^K320A; ≤2 μM): selectively acetylated wild-type GAC, with no detectable modification of the Lys320 mutant
Acetylation of wild-type vs Lys320 mutant GAC at higher concentrations (GAC^WT and GAC^K320A; ≥10 μM): emerging acetylation signals in the Lys320 mutant
Cellular activity (A549 antiproliferative) (A549 cells [1]): enhanced antiproliferative activities

SMILES: C#Cc1cc(CC(=O)Nc2nnc(N[C@@H]3CCN(c4cccnn4)C3)s2)ccc1C=O [Compound 15]
Covalent modification of GAC by intact protein MS (GAC (73-598); 8 h, 25 °C): confirmed covalent modification of GAC
GAC enzymatic inhibition compared to the reversible inhibitor 13 (GAC): significantly enhanced GAC enzymatic inhibition
Cellular activity (A549 antiproliferative) (A549 cells [1]): limited efficacy

Total binding rate of TRKA modified by compound [4]: 99.2%
IC50 (TRKC): 1.9 nM
Covalent binding site identified in TRKA (TRKA (440-796) [5]): Lys544
Modification rate of Lys544 (TRKA (440-796) [5]; TRKA + compound, 25 °C, 2 h): 95%
Ki (TRKA (440-796) [7]): 800 nM
k inact (inactivation rate) (TRKA (440-796) [7]; [8]): 0.0578 min^–1
k inact/K I (TRKA (440-796) [7]; [8]): 1.20 × 10^3 M^–1·s^–1
IC50 (TRKA): 11.5 nM
IC50 (TRKB): 1.04 nM
SMILES: C#Cc1cc(-c2cc(Nc3nc(N[C@@H](C)c4ccc(F)cn4)ncc3Cl)n[nH]2)ccc1C=O [Compound 7]
Phosphorylation of TRKA and downstream AKT [6]: efficiently suppress the phosphorylation of TRKA as well as its downstream AKT
